One assay has as its system HCT-15. The assay can be described thus: Antiproliferative activity against human HCT15 cells measured after 72 hrs by EZ-Cytox assay. In kind it is functional, cell-based. The settings on record: HCT-15, 72 h.
Another assay concerns T47D. In words: Antiproliferative activity against human T47D cells measured after 72 hrs by EZ-Cytox assay. The format is functional, cell-based.
A further assay deals with DU-145. The assay can be described thus: Antiproliferative activity against human DU145 cells measured after 72 hrs by EZ-Cytox assay. The format is functional, cell-based. The settings on record: DU-145, 72 h.
The next assay has as its system HeLa. The assay can be described thus: Antiproliferative activity against human HeLa cells measured after 72 hrs by EZ-Cytox assay. The format is functional, cell-based.
For assay [1], the target named is T1, DNA topoisomerase 1 (Homo sapiens) (UniProt P11387).
T1 sequence (whole entry): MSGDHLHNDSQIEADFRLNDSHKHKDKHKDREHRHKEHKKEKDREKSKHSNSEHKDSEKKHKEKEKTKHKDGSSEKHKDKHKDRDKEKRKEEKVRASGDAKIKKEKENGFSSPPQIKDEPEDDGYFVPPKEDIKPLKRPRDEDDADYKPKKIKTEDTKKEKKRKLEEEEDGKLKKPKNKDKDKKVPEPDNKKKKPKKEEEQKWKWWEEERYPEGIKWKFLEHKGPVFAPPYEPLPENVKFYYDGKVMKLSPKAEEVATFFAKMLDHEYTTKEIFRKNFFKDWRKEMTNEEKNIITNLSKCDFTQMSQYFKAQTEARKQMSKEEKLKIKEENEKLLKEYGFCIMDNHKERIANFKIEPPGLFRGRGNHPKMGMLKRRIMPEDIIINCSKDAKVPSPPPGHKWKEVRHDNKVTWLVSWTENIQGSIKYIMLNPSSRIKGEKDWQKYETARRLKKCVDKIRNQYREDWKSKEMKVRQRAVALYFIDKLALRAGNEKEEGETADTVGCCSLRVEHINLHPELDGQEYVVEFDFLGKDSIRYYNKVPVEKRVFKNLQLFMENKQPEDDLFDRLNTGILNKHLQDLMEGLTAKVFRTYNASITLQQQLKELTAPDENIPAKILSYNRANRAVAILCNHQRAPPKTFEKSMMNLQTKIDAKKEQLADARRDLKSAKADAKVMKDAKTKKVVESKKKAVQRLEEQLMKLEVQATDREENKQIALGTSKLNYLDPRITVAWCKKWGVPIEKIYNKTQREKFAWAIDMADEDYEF
In words: Inhibition of recombinant human topoisomerase 1-mediated relaxation of supercoiled pBR322 DNA at 100 uM measured after 30 mins by ethidium bromide staining based agarose gel electrophoresis relative to control.

The target in assay [2] is DNA topoisomerase 2-alpha (Homo sapiens) (UniProt P11388). In words: Inhibition of recombinant human topoisomerase 2alpha-mediated relaxation of supercoiled pBR322 DNA at 100 uM measured after 30 mins by ethidium bromide staining based agarose gel electrophoresis relative to control.
Sequence of DNA topoisomerase 2-alpha (Homo sapiens) (P11388 whole entry): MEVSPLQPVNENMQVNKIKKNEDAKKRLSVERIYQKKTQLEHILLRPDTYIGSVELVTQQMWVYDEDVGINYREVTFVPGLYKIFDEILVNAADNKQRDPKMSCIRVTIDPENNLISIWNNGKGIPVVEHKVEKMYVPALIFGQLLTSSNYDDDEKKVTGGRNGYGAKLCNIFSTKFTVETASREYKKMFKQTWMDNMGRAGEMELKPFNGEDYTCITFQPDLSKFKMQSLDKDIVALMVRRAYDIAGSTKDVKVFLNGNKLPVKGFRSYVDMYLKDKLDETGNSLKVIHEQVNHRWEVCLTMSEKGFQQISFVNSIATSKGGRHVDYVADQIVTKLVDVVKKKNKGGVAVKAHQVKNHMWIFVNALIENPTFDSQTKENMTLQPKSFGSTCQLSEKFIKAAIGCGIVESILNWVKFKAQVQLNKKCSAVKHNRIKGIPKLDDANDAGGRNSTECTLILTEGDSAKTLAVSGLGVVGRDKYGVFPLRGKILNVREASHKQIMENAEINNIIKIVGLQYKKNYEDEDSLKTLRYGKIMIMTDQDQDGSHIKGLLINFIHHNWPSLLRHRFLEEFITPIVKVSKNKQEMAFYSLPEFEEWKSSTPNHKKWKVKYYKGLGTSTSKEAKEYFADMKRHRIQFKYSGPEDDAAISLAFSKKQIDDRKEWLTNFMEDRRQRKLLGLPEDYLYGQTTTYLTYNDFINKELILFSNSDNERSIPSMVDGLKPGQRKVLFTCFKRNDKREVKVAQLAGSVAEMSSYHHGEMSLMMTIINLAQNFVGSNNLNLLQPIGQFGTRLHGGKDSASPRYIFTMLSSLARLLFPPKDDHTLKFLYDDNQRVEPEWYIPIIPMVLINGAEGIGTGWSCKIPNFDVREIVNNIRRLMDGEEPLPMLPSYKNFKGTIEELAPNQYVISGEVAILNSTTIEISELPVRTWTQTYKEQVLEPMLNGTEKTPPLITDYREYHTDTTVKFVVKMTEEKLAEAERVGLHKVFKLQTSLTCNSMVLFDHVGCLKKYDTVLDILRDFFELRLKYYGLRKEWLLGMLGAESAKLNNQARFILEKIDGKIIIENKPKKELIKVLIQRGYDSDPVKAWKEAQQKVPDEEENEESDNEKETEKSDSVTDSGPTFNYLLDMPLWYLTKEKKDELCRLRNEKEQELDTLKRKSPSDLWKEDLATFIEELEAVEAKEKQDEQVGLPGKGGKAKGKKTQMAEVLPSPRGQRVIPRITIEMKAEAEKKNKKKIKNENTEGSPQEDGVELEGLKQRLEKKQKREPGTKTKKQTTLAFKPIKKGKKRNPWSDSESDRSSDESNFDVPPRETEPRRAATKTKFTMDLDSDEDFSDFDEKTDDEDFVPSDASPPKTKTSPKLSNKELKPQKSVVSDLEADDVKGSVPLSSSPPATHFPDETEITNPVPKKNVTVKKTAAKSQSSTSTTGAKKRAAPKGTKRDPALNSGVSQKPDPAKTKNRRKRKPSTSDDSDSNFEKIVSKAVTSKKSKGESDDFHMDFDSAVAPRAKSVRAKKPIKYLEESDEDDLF
For assay [3] the target is unchanged. In words: Inhibition of recombinant human topoisomerase 2alpha-mediated relaxation of supercoiled pBR322 DNA at 20 uM measured after 30 mins by ethidium bromide staining based agarose gel electrophoresis relative to control.

For 24 compounds, IC50 and inhibition results are on record in ChEMBL document CHEMBL4373715, “Discovery and Biological Evaluations of Halogenated 2,4-Diphenyl Indeno[1,2-b]pyridinol Derivatives as Potent Topoisomerase IIα-Targeted Chemotherapeutic Agents for Breast Cancer” (J Med Chem, 2019).

pIC50: −log10 of the molar value. Some results are limits rather than exact numbers.

For orientation: pIC50 means the negative decadic logarithm of the IC50, by convention in mol/L. Read a high pIC50 as a small IC50. In general, inhibition refers to the drop in the measured response relative to a control, in per cent. With `Oc1ccc(-c2cc(-c3ccc(Cl)cc3)nc3c2Cc2c(O)cccc2-3)cc1`, the negative-log IC50 (pIC50) in the assay on HCT-15 was 5.52; with T47D, 5.94; in the assay on DU-145 it was 5.73; in the assay on HeLa it was 5.39. Further, the inhibition in assay [1] came out at 6.7%; in assay [2] it was 59.9%; in assay [3], 0%.
`Oc1ccc2c(c1)-c1nc(-c3ccccc3O)cc(-c3ccc(Cl)cc3)c1C2`: the pIC50 in the assay on HCT-15, in the assay with T47D, with DU-145 and with HeLa was less than 4.30 in each case. Also, the figures for the inhibition in assay [1], in assay [2] and in assay [3] were 2.9%, 21.4% and 0%, respectively.
For the compound `Oc1cccc2c1-c1nc(-c3ccccc3)cc(-c3ccccc3)c1C2`, the pIC50 in the assay with HCT-15 was 5.68; with T47D, 6.13; in the assay with DU-145, 5.85; in the assay on HeLa, 5.51. The inhibition in assay [1] turned out to be 0%; in assay [2], 57.5%; in assay [3], 0%.
In the case of `Oc1ccc2c(c1)-c1nc(-c3cccc(C(F)(F)F)c3)cc(-c3ccccc3O)c1C2`, the negative logarithm of the IC50 (pIC50) in the assay with HCT-15 is 5.53; in the assay on T47D it was 6.29; in the assay on DU-145, 5.79; in the assay with HeLa, 5.28. The inhibition came to 0% in assay [1], 98.9% in assay [2] and 2.8% in assay [3].
For the compound `Oc1ccc(-c2cc(-c3ccccc3C(F)(F)F)nc3c2Cc2cc(O)ccc2-3)cc1`, the pIC50 in the assay with HCT-15 is 5.61; in the assay on T47D, 5.98; in the assay on DU-145 it was 5.64; in the assay on HeLa, 5.68. For the same compound, the inhibition stood at 13.9% in assay [1], 85.9% in assay [2] and 0% in assay [3].
Turning to `Oc1ccc(-c2cc(-c3ccc(Cl)cc3)nc3c2Cc2cc(O)ccc2-3)cc1`, the negative-log IC50 (pIC50) in the assay with HCT-15 was 6.11; in the assay on T47D, 5.74; in the assay with DU-145 it was 5.72; with HeLa, 5.99. For the same compound, the figures for the inhibition in assay [1], in assay [2] and in assay [3] were 0%, 100% and 50.2%, respectively.
With `Oc1ccccc1-c1cc(-c2ccc(Cl)cc2)nc2c1Cc1cccc(O)c1-2`, the negative-log IC50 (pIC50) with HCT-15 was 5.91; in the assay on T47D, 5.62; in the assay on DU-145, 6.26; in the assay with HeLa, 5.27. The inhibition in assay [1] was 0%; in assay [2], 83.9%; in assay [3] it was 25.3%.
As to `Oc1cccc(-c2cc(-c3ccc(Cl)cc3)c3c(n2)-c2cccc(O)c2C3)c1`, the negative logarithm of the IC50 (pIC50) with HCT-15 was 5.59; with T47D, 5.68; in the assay on DU-145 it was 5.40; with HeLa it was 5.33. Further, the inhibition is 0% in assay [1], 86.3% in assay [2] and 4.4% in assay [3].
As for `Oc1cccc(-c2cc(-c3ccccc3)nc3c2Cc2c(O)cccc2-3)c1`, the negative logarithm of the IC50 (pIC50) was 5.60 in the assay with HCT-15, 5.54 with T47D, 6.72 in the assay with DU-145 and 5.17 in the assay on HeLa. The inhibition in assay [1] was found to be 4.6%; in assay [2], 95.4%; in assay [3], 0%.
For `Oc1ccccc1-c1cc(-c2cccc(C(F)(F)F)c2)nc2c1Cc1cccc(O)c1-2`, the pIC50 with HCT-15 was 5.55; with T47D it was 6.01; in the assay on DU-145, 5.47; in the assay on HeLa, 5.24. Besides, the values for the inhibition in assay [1], in assay [2] and in assay [3] were 2.7%, 95.8% and 4.3%, respectively.
As for `Oc1ccccc1-c1cc(-c2cccc(Cl)c2)c2c(n1)-c1cccc(O)c1C2`, the pIC50 was 5.61 in the assay on HCT-15, 4.92 in the assay with T47D, 5.22 with DU-145 and 4.69 with HeLa. For the same compound, the inhibition in assay [1] turned out to be 0%; in assay [2], 75.4%; in assay [3] it was 1.5%.
On to `Oc1ccccc1-c1cc(-c2ccccc2Cl)nc2c1Cc1cccc(O)c1-2`, for which the pIC50 with HCT-15 was 5.50; in the assay on T47D, 6.06; with DU-145, 6.54; with HeLa, 5.95. Moreover, the figures for the inhibition in assay [1], in assay [2] and in assay [3] were 13.4%, 80.9% and 3.7%, respectively.
Take `Oc1cccc(-c2cc(-c3ccc(Cl)cc3)c3c(n2)-c2c(O)cccc2C3)c1`: the negative logarithm of the IC50 (pIC50) was 4.83 in the assay on HCT-15, 5.65 in the assay on T47D, 5.39 in the assay with DU-145 and 5.05 with HeLa. Moreover, the inhibition in assay [1] turned out to be 9.3%; in assay [2], 95.7%; in assay [3], 8.5%.
Take `Oc1ccc2c(c1)-c1nc(-c3cccc(Cl)c3)cc(-c3ccccc3O)c1C2`: the negative logarithm of the IC50 (pIC50) was 5.75 in the assay with HCT-15, 5.94 in the assay on T47D, 6.49 in the assay on DU-145 and 5.56 with HeLa. In addition, the inhibition in assay [1] came out at 22.9%; in assay [2], 87.9%; in assay [3], 10.8%.
As to `Oc1ccc2c(c1)-c1nc(-c3ccccc3O)cc(-c3cccc(Cl)c3)c1C2`, the pIC50 in the assay with HCT-15 was 4.53; with T47D, 5.11; in the assay with DU-145, 4.43; in the assay with HeLa, 4.70. The figures for the inhibition in assay [1], in assay [2] and in assay [3] were 1.9%, 67.2% and 4%, respectively.
As to `Oc1ccc(-c2cc(-c3ccc(F)cc3)nc3c2Cc2ccc(O)cc2-3)cc1`, the negative logarithm of the IC50 (pIC50) was 5.60 with HCT-15, 5.94 in the assay with T47D, 5.63 with DU-145 and 5.65 in the assay on HeLa. In addition, the inhibition in assay [1] was found to be 0.9%; in assay [2] it was 47.6%; in assay [3], 1.4%.
As to `Oc1ccc(-c2cc(-c3ccccc3)c3c(n2)-c2ccc(O)cc2C3)cc1`, the negative logarithm of the IC50 (pIC50) in the assay with HCT-15 is 5.90; in the assay on T47D, 6.14; in the assay with DU-145 it was 6.15; in the assay with HeLa it was 5.57. In addition, the inhibition in assay [1] is 8.8%; in assay [2], 42.8%; in assay [3], 8.3%.
Take `Oc1ccc2c(c1)-c1nc(-c3ccccc3Cl)cc(-c3ccccc3O)c1C2`: the negative logarithm of the IC50 (pIC50) in the assay with HCT-15 is 5.31; with T47D, 5.55; in the assay on DU-145, 6.11; with HeLa, 5.17. For the same compound, the results for the inhibition in assay [1], in assay [2] and in assay [3] were 0%, 76.8% and 5.8%, respectively.
Turning to `Oc1ccc2c(c1)Cc1c(-c3ccc(Cl)cc3)cc(-c3ccccc3O)nc1-2`, the pIC50 with HCT-15, in the assay on T47D, in the assay with DU-145 and in the assay with HeLa was less than 4.30 each time. Moreover, the inhibition in assay [1] amounted to 21.4%; in assay [2] it was 70.8%; in assay [3], 0%.
With `Oc1ccc2c(c1)-c1nc(-c3ccc(C(F)(F)F)cc3)cc(-c3ccccc3O)c1C2`, the pIC50 was 5.49 with HCT-15, 6.17 in the assay with T47D, 5.55 in the assay with DU-145 and 5.65 in the assay on HeLa. Further, the values for the inhibition in assay [1], in assay [2] and in assay [3] were 0%, 100% and 3%, respectively.
Turning to `Oc1ccc(-c2cc(-c3ccc(F)cc3)nc3c2Cc2c(O)cccc2-3)cc1`, the pIC50 in the assay on HCT-15 was 5.65; in the assay on T47D, 5.86; in the assay on DU-145, 5.74; with HeLa, 5.31. Besides, the values for the inhibition in assay [1], in assay [2] and in assay [3] were 14.7%, 50.8% and 3.6%, respectively.
On to `Oc1ccc(-c2cc(-c3ccc(Cl)cc3)c3c(n2)-c2ccc(O)cc2C3)cc1`, for which the negative logarithm of the IC50 (pIC50) in the assay on HCT-15 is 4.73; with T47D, 5.82; with DU-145, 5.84; with HeLa, 5.17. The values for the inhibition in assay [1], in assay [2] and in assay [3] were 7.7%, 98.1% and 8.9%, respectively.
Take `Oc1cccc(-c2cc(-c3ccc(Cl)cc3)c3c(n2)-c2ccc(O)cc2C3)c1`: the pIC50 in the assay with HCT-15, in the assay with T47D, in the assay on DU-145 and with HeLa was less than 4.30 each time. For the same compound, the figures for the inhibition in assay [1], in assay [2] and in assay [3] were 2.1%, 74.3% and 6.2%, respectively.
In the case of `Oc1ccc(-c2cc(-c3ccc(Cl)cc3)c3c(n2)-c2c(O)cccc2C3)cc1`, the pIC50 with HCT-15, in the assay on T47D, in the assay with DU-145 and with HeLa was less than 4.30 each time. Also, the inhibition was found to be 0% in assay [1], 96.8% in assay [2] and 9.3% in assay [3].
